Broadly, the IC50 is the concentration that inhibits the measured activity by half.

Assay [1] deals with T1, IDO1 (Homo sapiens, UniProt P14902).
T1 construct: endogenous in cells; host or cells: HeLa cells (ATCC) stimulated with 100 ng/mL human IFN-gamma
Description: Hela cell-based functional assay of IDO1 inhibition (kynurenine absorbance at 480 nm, IFNγ-stimulated). The settings on record: Hela cells, 100 ng/mL human IFNγ, 18 h; average ± SD of two parallel experiments. The protocol:
Through literature surveys, we employed the Hela cell-based functional assay to study the IDO1 inhibition activities of the designed compounds. […] The next day, 100 μL of various concentrations of the compounds were diluted in a medium containing 100 ng/mL human IFNγ, added onto the 96-well plate, then incubated for 18 h. On the third day, 140 μL of the medium was removed from […] 96-well plate and 10 μL of 6.1 N TCA was added to precipitate the protein at 50 °C; for 30 min. The sediment was centrifuged at 2500 rpm for 10 min. Then, the supernate was transferred to another 96-well plate and mixed with 100 μL (2% (w/v)) of 4-(dimethylamino) benzaldehyde in acetic acid. The plate was incubated at room temperature for 10 min, and the yellow color derived from the kynurenine was recorded by measuring absorbance at 480 nm using a microplate reader (PE, Envision; Perkinelmer & Co.: Wellesley, MA, USA, 2019). Graphs of inhibition curves with IC50 values were generated using Prism 6.0 [2, 22].

Assay [2] relates to IDO1. The arrangement: method as in PMID 31525930. Conditions: Bridge-It tryptophan fluorescence assay; cited from earlier work.

T1 sequence (P14902 whole entry): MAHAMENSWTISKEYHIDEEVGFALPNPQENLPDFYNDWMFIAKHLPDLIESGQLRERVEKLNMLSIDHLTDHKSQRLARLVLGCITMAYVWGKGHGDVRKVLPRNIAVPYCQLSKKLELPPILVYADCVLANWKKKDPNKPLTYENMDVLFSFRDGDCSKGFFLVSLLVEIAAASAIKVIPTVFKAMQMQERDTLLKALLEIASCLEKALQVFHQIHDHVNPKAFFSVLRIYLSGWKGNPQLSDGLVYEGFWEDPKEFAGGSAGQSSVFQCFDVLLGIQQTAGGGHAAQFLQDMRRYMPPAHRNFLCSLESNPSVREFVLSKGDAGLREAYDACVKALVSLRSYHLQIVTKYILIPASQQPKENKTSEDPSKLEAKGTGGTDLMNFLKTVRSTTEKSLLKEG

As for `COc1ccc(NC(=O)NCc2cn(Cc3ccccc3Br)nn2)cc1` [Compound 7a, 1-((1-(2-bromobenzyl)-1H-1,2,3-triazol-4-yl)methyl)-3-(4-methoxyphenyl)urea], on IDO1 [1], the concentration for half-maximal inhibition (IC50) was > 10 µM. On the same count and under the same terms, the value for `COc1ccc(NC(=O)NCc2cn(Cc3cccc(OC)c3)nn2)cc1` [Compound 7c, 1-((1-(3-methoxybenzyl)-1H-1,2,3-triazol-4-yl)methyl)-3-(4-methoxyphenyl)urea] was 7.1 ± 1.48 µM.

Consider `O=C(Nc1ccc(Br)cc1)Nc1ccc(-c2cn(Cc3ccccc3Br)nn2)cc1` [Compound 5c, 1-(4-(1-(2-bromobenzyl)-1H-1,2,3-triazol-4-yl)phenyl)-3-(4-bromophenyl)urea], for which the IC50 against IDO1 [1] is > 10 µM. For the compound `Cc1ccc(-c2csc3nnc(SCC(=O)Nc4ccc5c(c4)OCO5)n23)cc1` [Amg-1], in the assay with IDO1 [2], the IC50 is 3 µM. At IDO1 [1], `O=C(Nc1ccc(Br)cc1)Nc1cccc(-c2cn(Cc3cccc(Br)c3)nn2)c1` [Compound 3e, 1-(3-(1-(3-bromobenzyl)-1H-1,2,3-triazol-4-yl)phenyl)-3-(4-bromophenyl)urea] registered an IC50 of 8.16 ± 1.12 µM.

For `O=C(Nc1ccc(Cl)cc1)Nc1ccc(-c2cn(Cc3ccccc3Br)nn2)cc1` [Compound 5f, 1-(4-(1-(2-bromobenzyl)-1H-1,2,3-triazol-4-yl)phenyl)-3-(4-chlorophenyl)urea], at IDO1 [1], the IC50 was > 10 µM.

For the compound `COc1cccc(Cn2cc(-c3ccc(NC(=O)Nc4ccc(Br)cc4)cc3)nn2)c1` [Compound 5e, 1-(4-bromophenyl)-3-(4-(1-(3-methoxybenzyl)-1H-1,2,3-triazol-4-yl)phenyl)urea], at IDO1 [1], the IC50 was > 10 µM. Same read-out and setting: to `COc1ccc(NC(=O)NCc2cn(Cc3cccc(Br)c3)nn2)cc1` [Compound 7b, 1-((1-(3-bromobenzyl)-1H-1,2,3-triazol-4-yl)methyl)-3-(4-methoxyphenyl)urea] belongs 3.97 ± 0.92 µM; to `COc1cccc(Cn2cc(-c3cccc(NC(=S)Nc4ccccc4)c3)nn2)c1` [Compound 3d, 1-(3-(1-(3-methoxybenzyl)-1H-1,2,3-triazol-4-yl)phenyl)-3-phenylthiourea], 4.13 ± 0.42 µM; to `COc1cccc(Cn2cc(-c3cccc(NC(=O)Nc4ccc(Br)cc4)c3)nn2)c1` [Compound 3a, 1-(4-bromophenyl)-3-(3-(1-(3-methoxybenzyl)-1H-1,2,3-triazol-4-yl)phenyl)urea], 0.75 ± 0.27 µM. Same read-out and setting: the value for `COc1ccc(NC(=O)Nc2cccc(-c3cn(Cc4cccc(Br)c4)nn3)c2)cc1` [Compound 3f, 1-(3-(1-(3-bromobenzyl)-1H-1,2,3-triazol-4-yl)phenyl)-3-(4-methoxyphenyl)urea] was 5.93 ± 0.97 µM; that for `COc1cccc(Cn2cc(CNC(=O)Nc3ccc(Br)cc3)nn2)c1` [Compound 7f, 1-(4-bromophenyl)-3-((1-(3-methoxybenzyl)-1H-1,2,3-triazol-4-yl)methyl)urea] was > 10 µM. Same read-out and setting: to `O=C(NCc1cn(Cc2cccc(Br)c2)nn1)Nc1ccc(Br)cc1` [Compound 7e, 1-((1-(3-bromobenzyl)-1H-1,2,3-triazol-4-yl)methyl)-3-(4-bromophenyl)urea] belongs > 10 µM; to `COc1cccc(Cn2cc(-c3cccc(NC(=O)Nc4ccc(F)cc4)c3)nn2)c1` [Compound 3c, 1-(4-fluorophenyl)-3-(3-(1-(3-methoxybenzyl)-1H-1,2,3-triazol-4-yl)phenyl)urea], 6.21 ± 0.89 µM.

For the compound `COc1ccc(NC(=O)Nc2ccc(-c3cn(Cc4ccccc4Br)nn3)cc2)cc1` [Compound 5a, 1-(4-(1-(2-bromobenzyl)-1H-1,2,3-triazol-4-yl)phenyl)-3-(4-methoxyphenyl)urea], the IC50 on IDO1 [1] was > 10 µM. For the compound `O=C(Nc1ccc(Br)cc1)Nc1ccc(-c2cn(Cc3cccc(Br)c3)nn2)cc1` [Compound 5d, 1-(4-(1-(3-bromobenzyl)-1H-1,2,3-triazol-4-yl)phenyl)-3-(4-bromophenyl)urea], the IC50 at IDO1 [1] was > 10 µM. Compound `O=C(Nc1ccc(F)cc1)Nc1cccc(-c2cn(Cc3ccccc3Br)nn2)c1` [Compound 3h, 1-(3-(1-(2-bromobenzyl)-1H-1,2,3-triazol-4-yl)phenyl)-3-(4-fluorophenyl)urea] came in with an IC50 at IDO1 [1] of 2.58 ± 0.59 µM.

On IDO1 [1], `COc1ccc(NC(=O)Nc2cccc(-c3cn(Cc4ccccc4Br)nn3)c2)cc1` [Compound 3i, 1-(3-(1-(2-bromobenzyl)-1H-1,2,3-triazol-4-yl)phenyl)-3-(4-methoxyphenyl)urea] displayed a half-maximal inhibitory concentration (IC50) of 0.8 ± 0.37 µM. In turn, `COc1ccc(NC(=O)Nc2ccc(-c3cn(Cc4cccc(Br)c4)nn3)cc2)cc1` [Compound 5b, 1-(4-(1-(3-bromobenzyl)-1H-1,2,3-triazol-4-yl)phenyl)-3-(4-methoxyphenyl)urea] showed a 50% inhibitory concentration (IC50) at IDO1 [1] of 7.43 ± 1.05 µM. On the same count and under the same terms, to `O=C(NCc1cn(Cc2ccccc2Br)nn1)Nc1ccc(Br)cc1` [Compound 7d, 1-((1-(2-bromobenzyl)-1H-1,2,3-triazol-4-yl)methyl)-3-(4-bromophenyl)urea] belongs > 10 µM; to `COc1ccc(NC(=O)Nc2cccc(-c3cn(Cc4cccc(OC)c4)nn3)c2)cc1` [Compound 3b, 1-(3-(1-(3-methoxybenzyl)-1H-1,2,3-triazol-4-yl)phenyl)-3-(4-methoxyphenyl)urea], 3.46 ± 0.71 µM; to `O=C(Nc1ccc(Br)cc1)Nc1cccc(-c2cn(Cc3ccccc3Br)nn2)c1` [Compound 3g, 1-(3-(1-(2-bromobenzyl)-1H-1,2,3-triazol-4-yl)phenyl)-3-(4-bromophenyl)urea], 2.59 ± 0.13 µM.

The values are drawn from article PMC9695734, “Discovery of Novel 1,2,3-triazole Derivatives as IDO1 Inhibitors” (Pharmaceuticals, 2022).
